Data taken from ChEMBL document CHEMBL4346758 (2019).
Active and inactive are the calls of the source. The calls are words filed in the database; no cut-off is given here.

What was measured:
Influenza A virus [1] = assay: microbe, parasite or virus in culture; settings: A/Puerto Rico/8/1934(H1N1), A549
[2] = system: Influenza A virus (A/Thailand/Kan353/2004(H5N1)); assay: Inhibition of Influenza A virus (A/Thailand/Kan353/2004(H5N1)) neuraminidase N1 using fluorogenic 2'-(4-Methylumbelliferyl)-alpha-D-N-acetylneuraminic acid sodium salt hydrate as substrate measured after 30 mins by microplate reader analysis
[3] = Cytotoxicity against human A549 cells assessed as reduction in cell viability by MTT assay; type: cell-based
H5N1 subtype [4] = type: functional, organism-based; settings: 5 uM
Influenza A virus [5] = assay: Inhibition of hemagglutinin 5 in Influenza A virus assessed as inhibition of chicken erythrocytes aggregation
Influenza A virus [6] = type: functional, organism-based; settings: H5N1
Hemagglutinin = Hemagglutinin (Influenza A virus, UniProt B4URE7); assay: Binding affinity to hemagglutinin by SPR assay
Sequence of Hemagglutinin (B4URE7 whole entry): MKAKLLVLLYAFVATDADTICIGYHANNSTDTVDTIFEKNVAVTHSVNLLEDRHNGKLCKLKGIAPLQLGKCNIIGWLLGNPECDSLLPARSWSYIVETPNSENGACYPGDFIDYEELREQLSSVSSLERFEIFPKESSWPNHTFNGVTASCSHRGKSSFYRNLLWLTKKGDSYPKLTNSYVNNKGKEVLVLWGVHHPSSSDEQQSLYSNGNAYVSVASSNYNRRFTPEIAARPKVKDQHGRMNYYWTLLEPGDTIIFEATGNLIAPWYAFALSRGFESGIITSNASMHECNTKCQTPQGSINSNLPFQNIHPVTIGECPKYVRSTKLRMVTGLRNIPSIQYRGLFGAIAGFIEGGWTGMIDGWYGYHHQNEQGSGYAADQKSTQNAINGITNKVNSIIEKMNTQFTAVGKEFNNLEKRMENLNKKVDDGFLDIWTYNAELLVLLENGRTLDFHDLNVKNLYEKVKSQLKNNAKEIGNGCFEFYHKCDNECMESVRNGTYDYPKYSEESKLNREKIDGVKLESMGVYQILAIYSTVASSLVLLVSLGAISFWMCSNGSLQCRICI

[7] = system: Vesicular stomatitis virus; assay: Antiviral activity against VSV-G enveloped pseudovirus infected in MDCK cells assessed as inhibition of viral entry; type: functional, organism-based
MDCK = assay: Cytotoxicity against MDCK cells assessed as cell viability; type: cell-based, Canis lupus familiaris; settings: dog
[8] = Binding affinity to HA2 subunit by SPR assay; set-up: species or system Influenza A virus
H5N1 subtype [9] = assay: Antiviral activity against Influenza A virus (A/Thailand/Kan353/2004(H5N1)) infected in MDCK cells assessed as inhibition of viral entry; type: functional, organism-based

Row | Structure (SMILES) | IC50 (Influenza A virus [1]) [µM] | inhibition [2] | CC50 [3] [µM] | inhibition (H5N1 subtype [4]) | inhibition (Influenza A virus [5]) | inhibition (Influenza A virus [6]) | Kd (Hemagglutinin) [µM] | inhibition [7] | Activity (MDCK) | Kd [8] [µM] | IC50 (H5N1 subtype [9]) [µM]
1 | C[C@H]1[C@H](C)CC[C@]2(C(=O)NCCN3CCCCC3)CC[C@]3(C)C(=CC[C@@H]4[C@@]5(C)CC[C@H](O[C@@H]6O[C@H](CO)[C@@H](O[C@@H]7O[C@@H](C)[C@H](O)[C@@H](O)[C@H]7O)[C@H](O)[C@H]6O[C@@H]6O[C@@H](C)[C@H](O)[C@@H](O)[C@H]6O)C(C)(C)[C@@H]5CC[C@]43C)[C@H]12 | 21.3 | inactive | > 200 |  |  |  |  |  |  |  | 
2 | C[C@H]1[C@H](C)CC[C@]2(C(=O)NCCN3CCOCC3)CC[C@]3(C)C(=CC[C@@H]4[C@@]5(C)CC[C@H](O[C@@H]6O[C@H](CO)[C@@H](O[C@@H]7O[C@@H](C)[C@H](O)[C@@H](O)[C@H]7O)[C@H](O)[C@H]6O[C@@H]6O[C@@H](C)[C@H](O)[C@@H](O)[C@H]6O)C(C)(C)[C@@H]5CC[C@]43C)[C@H]12 | 18.2 | inactive | > 200 | Active | inactive | Dose-dependent effect | 0.0161 | inactive | Non-Toxic | 0.00017 | 3.88
3 | C[C@H]1[C@H](C)CC[C@]2(C(=O)O)CC[C@]3(C)C(=CC[C@@H]4[C@@]5(C)CC[C@H](O[C@@H]6O[C@H](CO)[C@@H](O[C@@H]7O[C@@H](C)[C@H](O)[C@@H](O)[C@H]7O)[C@H](O)[C@H]6O[C@@H]6O[C@@H](C)[C@H](O)[C@@H](O)[C@H]6O)C(C)(C)[C@@H]5CC[C@]43C)[C@H]12 | 38.1 |  | 66.6 |  |  |  |  |  |  |  | 
4 | CCOC(=O)C1=C[C@@H](OC(CC)CC)[C@H](NC(C)=O)[C@@H](N)C1 [OSELTAMIVIR] | 4.61 |  | > 200 |  |  |  |  |  |  |  | 
